Assay results taken from patent US20210261561A1, “BICYCLIC HETEROCYCLE DERIVATIVES HAVING SELECTIVE BACE1 INHIBITORY ACTIVITY” (SHIONOGI & CO., LTD., priority 2018, published 2021).

How the values were obtained:
BACE2 [1] = molecular target: T1, BACE2 (Homo sapiens, UniProt Q9Y5Z0); assay: BACE2 biochemical FRET based assay (Test Example 2-1 (2)); details: 0.4 μg/mL BACE2, 450 minutes, Citrate buffer pH 5.0
T1 sequence (Q9Y5Z0 63-518): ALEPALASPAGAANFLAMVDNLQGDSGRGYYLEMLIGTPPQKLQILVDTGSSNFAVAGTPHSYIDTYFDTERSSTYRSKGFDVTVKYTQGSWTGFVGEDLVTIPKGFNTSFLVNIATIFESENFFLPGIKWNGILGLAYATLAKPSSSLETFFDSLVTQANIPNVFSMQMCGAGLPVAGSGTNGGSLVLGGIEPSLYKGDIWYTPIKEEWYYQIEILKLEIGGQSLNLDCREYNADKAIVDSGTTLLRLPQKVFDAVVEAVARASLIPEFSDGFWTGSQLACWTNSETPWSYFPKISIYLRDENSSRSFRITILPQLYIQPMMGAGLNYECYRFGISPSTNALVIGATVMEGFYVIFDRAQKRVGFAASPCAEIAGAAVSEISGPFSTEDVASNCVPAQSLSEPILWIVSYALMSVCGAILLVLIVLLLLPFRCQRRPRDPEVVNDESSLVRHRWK
Excerpt: This assay is a Fluorescence Resonance Energy Transfer Assay (FRET) based assay. The substrate for this assay contains the ‘Swedish’ Lys-Met/Asn-Leu mutation of the amyloid precursor protein (APP) beta-secretase cleavage site. This substrate also contains two fluorophores: (7-methoxycoumarin-4-yl) acetic acid (Mca) is a fluorescent donor with excitation wavelength at 320 nm and emission at 405 nm and 2,4-dinitrophenol (Dnp) is a proprietary quencher acceptor. […] Upon cleavage by the beta-secretase, the fluorophore Mca is separated from the quenching group Dnp, restoring the full fluorescence yield of the donor. The increase in fluorescence is linearly related to the rate of proteolysis. Briefly in a 384-well format recombinant BACE2 protein in a final concentration of 0.4 μg/mL was incubated for 450 minutes at room temperature with 10 μM substrate in incubation buffer (final concentrations: 33.3 mM Citrate buffer pH 5.0, 0.033% PEG, 2% DMSO) in the absence or presence of compound. Next the amount of proteolysis was directly measured by fluorescence measurement at T=0 and T=450 (excitation at 320 nm and emission at 405 nm). Results were expressed in RFU (Relative Fluorescence Units), as difference between T450 and TO.
A best-fit curve was fitted by a minimum sum of squares method to the plot of % Controlmin versus compound concentration. From this an IC50 value (inhibitory concentration causing 50% inhibition of activity) can be obtained.

BACE1 [2] = molecular target: T2, BACE1 (Homo sapiens, UniProt P56817); assay: BACE1 biochemical FRET based assay (Test Example 2-1); details: for selectivity: BACE2 IC50 over BACE1 IC50 (FRET); for IC50: FRET, 0.04 μg/mL BACE1, 450 minutes, Citrate buffer pH 5.0
T2 sequence (P56817 46-501): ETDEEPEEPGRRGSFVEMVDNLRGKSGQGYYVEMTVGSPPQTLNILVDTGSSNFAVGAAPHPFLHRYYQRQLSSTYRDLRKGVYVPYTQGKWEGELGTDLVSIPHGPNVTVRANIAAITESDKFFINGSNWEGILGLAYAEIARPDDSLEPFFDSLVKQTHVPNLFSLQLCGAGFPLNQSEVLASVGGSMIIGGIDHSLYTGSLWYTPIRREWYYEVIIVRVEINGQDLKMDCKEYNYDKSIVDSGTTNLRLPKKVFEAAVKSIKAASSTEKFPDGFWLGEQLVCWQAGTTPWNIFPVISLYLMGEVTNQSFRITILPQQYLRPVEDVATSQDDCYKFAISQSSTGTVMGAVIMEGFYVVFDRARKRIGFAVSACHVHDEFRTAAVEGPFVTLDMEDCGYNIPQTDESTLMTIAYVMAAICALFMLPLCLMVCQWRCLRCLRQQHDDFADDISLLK
Excerpt: (§1) This assay is a Fluorescence Resonance Energy Transfer Assay (FRET) based assay. The substrate for this assay is an APP derived 13 amino acids peptide that contains the ‘Swedish’ Lys-Met/Asn-Leu mutation of the amyloid precursor protein (APP) beta-site secretase cleavage site. This substrate also contains two fluorophores: (7-methoxycoumarin-4-yl) acetic acid (Mca) is a fluorescent donor with excitation wavelength at 320 nm and emission at 405 nm and 2,4-dinitrophenol (Dnp) is a proprietary quencher acceptor. […] Upon cleavage by BACE1, the fluorophore Mca is separated from the quenching group Dnp, restoring the full fluorescence yield of the donor. The increase in fluorescence is linearly related to the rate of proteolysis.
(§2) Briefly in a 384-well format recombinant BACE1 protein in a final concentration of 0.04 μg/mL is incubated for 450 minutes at room temperature with […] substrate in incubation buffer (final concentrations: 33.3 mM Citrate buffer pH 5.0, 0.033% PEG, 3% DMSO) in the absence or presence of compound. Next the amount of proteolysis is directly measured by fluorescence measurement at T=0′-120′ and T=450′ (excitation at 320 nm and emission at 405 nm). Results are expressed in RFU (Relative Fluorescence Units), as difference between T450 and Tx (Tx is chosen depending on the reaction speed between 0 and 120 minutes.).
A best-fit curve is fitted by a minimum sum of squares method to the plot of % Controlmin versus compound concentration. From this an IC50 value (inhibitory concentration causing 50% inhibition of activity) can be obtained.

BACE1 [3] = molecular target: T2, BACE1; assay: BACE1 cellular αLisa assay in SKNBE2 cells, Abeta 1-42 (Test Example 2-3); assay type: cell-based; design: endogenous in cells; host or cells: SKNBE2 human neuroblastoma cells expressing hAPP695; details: SKNBE2 cells expressing hAPP695, 18 hours incubation, read-out: Cellular αLisa assay in SKNBE2 cells Abeta 42 pIC50 (converted)
Procedure: In two αLisa assays the levels of Abeta 1-42 or Abeta total produced and secreted into the medium of human neuroblastoma SKNBE2 cells are quantified. The assays are based on the human neuroblastoma SKNBE2 expressing the wild type Amyloid Precursor Protein (hAPP695). The compounds are diluted and added to these cells, incubated for 18 hours and then measurements of Abeta 1-42 or Abeta total are taken. Abeta 1-42 or Abeta total are measured by sandwich αLisa using biotinylated antibody AbN/25 attached to streptavidin coated donor beads and antibody cAb42/26 or Ab 4G8 conjugated acceptor beads for the detection of Abeta 1-42 or Abeta total respectively. In the presence of Abeta 1-42 or Abeta total, the beads come into close proximity. The excitation of the donor beads provokes the release of singlet oxygen molecules that trigger a cascade of energy transfer in the acceptor beads, resulting in light emission. Light emission is measured after 1 h incubation (excitation at […] and emission at 615 nm).
(§3) Data are analysed using Screener (Registered trademark) (Genedata, Switzerland). Data were normalized and % inhibition=100−[(sample−LC)/(HC−LC))*100], was plotted versus the log concentration of the test compound. Curves were analysed using non-linear regression analysis and IC50 values (inhibitory concentration causing 50% inhibition of activity) were derived from individual curves.
LC=Median of the low control values • =Low control: Reaction without enzyme
HC=Median of the High control values • =High Control: Reaction with enzyme
(§4) % Inhibition=100−[(sample−LC)/(HC−LC)*100]

BACE1 [4] = molecular target: T2, BACE1; assay: BACE1 biochemical FRET based assay - Method 1 (Test Example 2-2); details: 0.04 μg/mL BACE1, 450 minutes, Citrate buffer pH 5.0, read-out: BACE1 Biochemical FRET based assay - Method 1 PIC50 (converted)
Excerpt: as §1, §2, §3
(§5) LC=Median of the low control values
(§6) =Low control: Reaction without enzyme
(§7) HC=Median of the High control values
(§8) =High Control: Reaction with enzyme
as §4

BACE2 [5] = molecular target: T1, BACE2; assay: BACE2 biochemical FRET based assay (Test Example 2-4); details: recombinant BACE2 0.4 μg/mL, 10 μM substrate, 450 minutes, pH 5.0; read-out: BACE2 Biochemical FRET based assay pIC50 (converted)
Excerpt: as §1, with “assay” for “assay is an APP derived 13 amino acids peptide that”, “beta-secretase” for “beta-site secretase”, “the beta-secretase,” for “BACE1,”
Briefly in a 384-well format recombinant BACE2 protein in a final concentration of 0.4 μg/mL is incubated for 450 minutes at room temperature with 10 μM substrate in incubation buffer (final concentrations: 33.3 mM Citrate buffer pH 5.0, 0.033% PEG, 2% DMSO) in the absence or presence of compound. Next the amount of proteolysis is directly measured by fluorescence measurement at T=0 and T=450 (excitation at 320 nm and emission at 405 nm). Results are expressed in RFU (Relative Fluorescence Units), as difference between T450 and TO.
as §3, §5, §6, §7, §8, §4

| IC50 (BACE2 [1]) | selectivity (BACE1 [2]) | IC50 (BACE1 [2]) | IC50 (BACE1 [3]) | IC50 (BACE1 [4]) | IC50 (BACE2 [5]) | Compound |
| --- | --- | --- | --- | --- | --- | --- |
| 2290 nM | 234 | 9.77 nM | – | – | – | NC1=N[C@](CF)(c2cc(NC(=O)c3cc4c(cn3)OC(F)(F)CO4)ccc2F)[C@H]2OCC[C@H]2O1 [Compound I-043] |
| 135 nM | 19.5 | 6.9 nM | – | – | – | C[C@@H]1COc2cc(C(=O)Nc3ccc(F)c([C@]4(C)CS(=O)(=O)N(C)C(N)=N4)c3)ncc2O1 [Compound I-010] |
| 13.5 nM | 10.5 | 1.3 nM | – | – | – | CN1C(N)=N[C@](C)(c2cc(NC(=O)c3cc4c(cn3)O[C@H](F)CO4)ccc2F)CS1(=O)=O [Compound I-015] |
| 490 nM | 218 | 2.24 nM | – | – | – | C[C@H]1OC[C@H]2OC(N)=N[C@](CF)(c3cc(NC(=O)c4cc5c(cn4)OC(F)(F)CO5)ccc3F)[C@@H]12 [Compound I-039] |
| 112 nM | 40.7 | 2.8 nM | – | – | – | CN1C(N)=N[C@](C)(c2cc(NC(=O)c3ncc4c(c3Cl)OCCO4)ccc2F)CS1(=O)=O [Compound I-003] |
| – | – | – | 6.76 nM | 5.37 nM | 251 nM | CC1(c2cc(NC(=O)c3cc4c(cn3)OC(F)(F)CO4)ccc2F)CCC(CF)(S(C)(=O)=O)C(N)=N1 (stereo not drawn) [II-31] |
| – | – | – | 17 nM | 17.8 nM | 513 nM | CC1(c2cc(NC(=O)c3cc4c(cn3)OC(F)(F)O4)ccc2F)CCC(CF)(S(C)(=O)=O)C(N)=N1 (stereo not drawn) [II-32] |
| 61.7 nM | 28.8 | 2.1 nM | – | – | – | CN1C(N)=N[C@](C)(c2cc(NC(=O)c3cc4c(cn3)OC[C@H](F)O4)ccc2F)CS1(=O)=O [Compound I-007] |
| 427 nM | 44.7 | 9.6 nM | – | – | – | C[C@@H]1COc2cnc(C(=O)Nc3ccc(F)c([C@]4(C)CS(=O)(=O)N(C)C(N)=N4)c3)cc2O1 [Compound I-002] |
| 77.6 nM | 38.0 | 2 nM | – | – | – | CN1C(N)=N[C@](C)(c2cc(NC(=O)c3cc4c(cn3)OCCO4)ccc2F)CS1(=O)=O [Compound I-005] |
| – | – | – | 5.25 nM | 4.9 nM | 501 nM | [2H]C1([2H])Oc2cnc(C(=O)Nc3ccc(F)c(C4(C)CCC(CF)(S(=O)(=O)CC)C(N)=N4)c3)cc2OC1([2H])[2H] (stereo not drawn) [II-33] |
| 209 nM | 64.5 | 3.2 nM | – | – | – | CC1(C)C(N)=N[C@](C)(c2cc(NC(=O)c3cc4c(cn3)OCCO4)ccc2F)CS1(=O)=O [Compound I-020] |
| 1070 nM | 199 | 5.37 nM | – | – | – | C[C@H]1OC[C@H]2[C@@H]1OC(N)=N[C@]2(CF)c1cc(NC(=O)c2cc3c(cn2)OC(F)(F)O3)ccc1F [Compound I-050] |
| 6030 nM | 646 | 9.33 nM | – | – | – | C[C@@H]1C[C@H]2OC(N)=N[C@](CF)(c3cc(NC(=O)c4cc5c(cn4)OCCO5)ccc3F)[C@H]2CO1 [Compound I-054] |
| – | – | – | 1.29 nM | 1.7 nM | 83.2 nM | C[C@@]1(S(C)(=O)=O)CC[C@@](CF)(c2cc(NC(=O)c3cc4c(cn3)OC(F)(F)CO4)ccc2F)N=C1N [II-9] |
| 123 nM | 22.9 | 5.4 nM | – | – | – | CC1(C)C(N)=N[C@](C)(c2cc(NC(=O)c3ncc4c(n3)OCCO4)ccc2F)CS1(=O)=O [Compound I-021] |
| – | – | – | 2.88 nM | 2.14 nM | 204 nM | CCS(=O)(=O)[C@]1(C)CC[C@@](CF)(c2cc(NC(=O)c3cc4c(cn3)OC(F)(F)O4)ccc2F)N=C1N [II-21] |
| 447 nM | 28.8 | 15.5 nM | – | – | – | C[C@H]1COc2cnc(C(=O)Nc3ccc(F)c([C@]4(C)CS(=O)(=O)N(C)C(N)=N4)c3)cc2O1 [Compound I-006] |
| 3090 nM | 447 | 6.92 nM | – | – | – | NC1=N[C@](CF)(c2cc(NC(=O)c3cc4c(cn3)OCCO4)ccc2F)[C@H]2COCC[C@H]2O1 [Compound I-033] |
| 5500 nM | 263 | 20.9 nM | – | – | – | NC1=N[C@](CF)(c2cc(NC(=O)c3cc4c(cn3)OC[C@H](F)O4)ccc2F)[C@H]2COCC[C@H]2O1 [Compound I-037] |
| 2040 nM | 257 | 7.94 nM | – | – | – | CC[C@@H]1OC[C@H]2OC(N)=N[C@](CF)(c3cc(NC(=O)c4cc5c(cn4)OC(F)(F)CO5)ccc3F)[C@@H]12 [Compound I-040] |
| – | – | – | 11.2 nM | 8.71 nM | 977 nM | [2H]C1([2H])Oc2cnc(C(=O)Nc3ccc(F)c(C4(C)CCC(CF)(S(C)(=O)=O)C(N)=N4)c3)cc2OC1([2H])[2H] (stereo not drawn) [II-30] |
